Source: ChEMBL document CHEMBL1201862, “PubChem BioAssay data set” (2004)
Activity calls are given as the source filed them.

Columns and labels:
Beta-galactosidase = Beta-galactosidase (Escherichia coli, UniProt Q8VNN2); assay: Dose response counterscreen for EBI2 assay utilizing the enzyme, b-galactosidase.; assay type: functional
[1] = molecular target: Kappa-type opioid receptor (Homo sapiens, UniProt P41145); assay type: functional
[2] = cytotoxicity in HeLa cells, dose response, cytotoxicity control, cell-based, 24 h, dry powder, set 2 (AID 651774); assay type: functional
HeLa = assay: HeLa cell cytotoxicity, dose response, cytotoxicity control, ATP luminescence, cherry-pick samples (AID 687004); assay type: functional, cell-based; conditions: Homo sapiens
[3] = P. falciparum 3D7-ScDHODH growth inhibitors, dose response, SYBR Green, dry powder samples (AID 1159570); assay type: functional, cell-based;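 further: parasite growth measured after 72 hours of compound exposure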
[4] = P. falciparum Dd2 growth inhibitors, dose response, SYBR Green, dry powder samples (AID 1159566); assay type: functional, cell-based;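 further: potency for growth inhibition with lower SYBR green DNA signal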
[5] = P. falciparum ATP4 D1247Y mutant growth inhibitors, dose response, NITD609-resistant line, SYBR Green, dry powder (AID 1159571); assay type: functional, cell-based;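 further: parasites synchronized at ring stage by sorbitol before testing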
[6] = HepG2 cell cytotoxicity, dose response, cytotoxicity control, plate reader, dry powder samples (AID 1159569); assay type: functional, cell-based;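 further: inhibitor potency with signal falling toward the positive control level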
HEK293 = assay: HEK293T cell cytotoxicity, dose response, cytotoxicity control, ATP luminescence, cherry-pick samples (AID 687005); assay type: functional, cell-based; conditions: Homo sapiens;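 further: cells exposed to compound for 48 hours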
[7] = HEK293 Cytotoxicity Assay Measured in Cell-Based System Using Plate Reader - 7071-01_Inhibitor_Dose_CherryPick_Activity_Set2.; assay type: functional
[8] = molecular target: Disintegrin and metalloproteinase domain-containing protein 17 (Homo sapiens, UniProt P78536); assay: ADAM17 protease inhibitors, dose response, counter-screen for ADAM10 exosite inhibitor project, biochemical, quenched FRET substrate (AID 743253)
Disintegrin and metalloproteinase domain-containing protein 17, sequence (P78536 whole entry, the tested form may be a part): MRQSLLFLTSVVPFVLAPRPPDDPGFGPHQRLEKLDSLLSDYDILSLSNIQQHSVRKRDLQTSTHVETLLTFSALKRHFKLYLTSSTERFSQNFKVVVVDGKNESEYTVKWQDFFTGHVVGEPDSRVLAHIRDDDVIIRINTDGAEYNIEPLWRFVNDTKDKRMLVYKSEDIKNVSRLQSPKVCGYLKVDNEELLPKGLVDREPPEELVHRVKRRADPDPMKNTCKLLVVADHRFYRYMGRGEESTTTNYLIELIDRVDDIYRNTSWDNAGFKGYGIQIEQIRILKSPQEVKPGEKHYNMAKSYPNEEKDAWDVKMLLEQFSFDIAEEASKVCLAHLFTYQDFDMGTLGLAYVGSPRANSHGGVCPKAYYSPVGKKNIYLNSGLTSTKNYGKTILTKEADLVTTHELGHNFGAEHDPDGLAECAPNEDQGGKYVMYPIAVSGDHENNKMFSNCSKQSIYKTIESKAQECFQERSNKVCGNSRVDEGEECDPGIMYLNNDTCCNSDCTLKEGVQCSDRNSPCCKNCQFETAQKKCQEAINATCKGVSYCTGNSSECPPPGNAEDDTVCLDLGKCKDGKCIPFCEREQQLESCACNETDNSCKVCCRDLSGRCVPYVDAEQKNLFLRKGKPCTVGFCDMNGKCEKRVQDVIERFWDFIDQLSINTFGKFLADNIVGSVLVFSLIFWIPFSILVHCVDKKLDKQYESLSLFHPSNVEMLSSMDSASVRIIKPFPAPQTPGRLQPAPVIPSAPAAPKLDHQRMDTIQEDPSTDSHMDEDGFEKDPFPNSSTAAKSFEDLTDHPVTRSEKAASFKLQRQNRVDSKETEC

[9] = ADAM10 inhibitors, peptide cleavage, dose response, biochemical, QFRET (AID 743254);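 further: ADAM10 enzyme with the DM2 quenched FRET peptide as substrate; EDANS fluorescence gain as the protease cuts the substrate; inhibitor potency against ADAM10 proteolytic activity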
Beta-lactamase [10] = molecular target: Beta-lactamase (Salmonella choleraesuis (strain SC-B67), UniProt Q5J463)
Beta-lactamase (Salmonella choleraesuis (strain SC-B67), UniProt Q5J463), sequence (Q5J463 whole entry): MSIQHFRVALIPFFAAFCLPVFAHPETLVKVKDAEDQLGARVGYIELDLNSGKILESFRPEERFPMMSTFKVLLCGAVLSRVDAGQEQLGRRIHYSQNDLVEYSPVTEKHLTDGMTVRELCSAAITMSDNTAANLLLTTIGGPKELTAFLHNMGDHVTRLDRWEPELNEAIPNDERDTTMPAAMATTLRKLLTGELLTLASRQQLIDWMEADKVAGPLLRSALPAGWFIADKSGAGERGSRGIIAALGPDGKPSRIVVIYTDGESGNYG

Beta-lactamase [11] = molecular target: Beta-lactamase (Pseudomonas aeruginosa, UniProt Q79MP6);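 further: biochemical dose-response test of metallo-beta-lactamase enzyme inhibition, read out by epi-absorbance; purified recombinant IMP-1 metallo-beta-lactamase with nitrocefin as substrate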
Beta-lactamase (Pseudomonas aeruginosa, UniProt Q79MP6), sequence (Q79MP6 whole entry, the tested form may be a part): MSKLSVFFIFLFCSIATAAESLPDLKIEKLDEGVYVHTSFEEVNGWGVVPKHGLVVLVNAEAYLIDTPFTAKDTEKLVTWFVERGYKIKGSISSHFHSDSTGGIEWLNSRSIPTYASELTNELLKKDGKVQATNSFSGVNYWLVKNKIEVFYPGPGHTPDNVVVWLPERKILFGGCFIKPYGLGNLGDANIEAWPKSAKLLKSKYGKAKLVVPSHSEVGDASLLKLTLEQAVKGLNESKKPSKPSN

[12] = molecular target: T1, Sentrin-specific protease 1 (Homo sapiens, UniProt Q9P0U3); assay: Dose response confirmation of small molecule inhibitors of the catalytic domain of the SUMO protease, SENP1 in a FRET assay.; assay type: functional; conditions: read-out: IC50_Mean
T1 sequence (Q9P0U3 whole entry, the tested form may be a part): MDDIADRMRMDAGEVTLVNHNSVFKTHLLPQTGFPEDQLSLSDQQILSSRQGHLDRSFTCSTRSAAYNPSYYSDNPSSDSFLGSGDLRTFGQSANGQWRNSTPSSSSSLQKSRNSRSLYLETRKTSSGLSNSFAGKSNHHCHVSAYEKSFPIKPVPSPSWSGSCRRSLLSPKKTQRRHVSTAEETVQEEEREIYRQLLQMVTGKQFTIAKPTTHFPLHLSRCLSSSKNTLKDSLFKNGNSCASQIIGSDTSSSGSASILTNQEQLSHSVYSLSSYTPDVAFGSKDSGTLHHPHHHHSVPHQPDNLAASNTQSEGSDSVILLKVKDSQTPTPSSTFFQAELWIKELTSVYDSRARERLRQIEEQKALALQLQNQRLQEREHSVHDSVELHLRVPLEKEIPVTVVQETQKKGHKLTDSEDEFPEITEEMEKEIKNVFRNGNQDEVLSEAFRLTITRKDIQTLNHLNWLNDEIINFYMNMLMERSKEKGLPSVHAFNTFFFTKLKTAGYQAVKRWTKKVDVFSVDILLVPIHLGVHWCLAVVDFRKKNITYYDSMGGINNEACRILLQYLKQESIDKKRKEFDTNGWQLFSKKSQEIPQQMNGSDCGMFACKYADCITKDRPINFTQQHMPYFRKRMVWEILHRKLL

[13] = molecular target: T1, Sentrin-specific protease 1; assay: potency of human SENP1 inhibitors, dose response, biochemical, kinetic FRET (AID 651697); assay type: functional; conditions: read-out: IC50_Mean
[14] = molecular target: 5-hydroxytryptamine receptor 2A (Mus musculus, UniProt P35363); assay type: functional, cell-based;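 further: CHO-K1 cells with tagged receptor and beta-arrestin; agonist potency measured as compound-induced activation of the receptor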
5-hydroxytryptamine receptor 2A, sequence (P35363 whole entry): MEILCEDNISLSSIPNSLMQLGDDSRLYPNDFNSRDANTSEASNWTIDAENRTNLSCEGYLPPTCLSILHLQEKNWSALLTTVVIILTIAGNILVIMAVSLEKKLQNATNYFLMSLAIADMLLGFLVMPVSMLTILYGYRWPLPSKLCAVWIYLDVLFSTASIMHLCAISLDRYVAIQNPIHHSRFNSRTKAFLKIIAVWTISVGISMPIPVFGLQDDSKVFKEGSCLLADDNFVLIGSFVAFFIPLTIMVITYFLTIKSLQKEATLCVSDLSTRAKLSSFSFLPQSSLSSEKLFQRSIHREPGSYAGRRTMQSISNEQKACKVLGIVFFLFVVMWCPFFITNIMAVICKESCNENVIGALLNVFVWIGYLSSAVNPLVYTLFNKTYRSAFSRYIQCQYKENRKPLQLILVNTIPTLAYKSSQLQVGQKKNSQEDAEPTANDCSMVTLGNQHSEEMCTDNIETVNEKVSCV

Mu-type opioid receptor = Mu-type opioid receptor (Homo sapiens, UniProt P35372); assay type: functional, cell-based;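 further: U2OS cells with beta-arrestin recruitment to OPRM1 by beta-gal complementation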
Mu-type opioid receptor, sequence (P35372 whole entry): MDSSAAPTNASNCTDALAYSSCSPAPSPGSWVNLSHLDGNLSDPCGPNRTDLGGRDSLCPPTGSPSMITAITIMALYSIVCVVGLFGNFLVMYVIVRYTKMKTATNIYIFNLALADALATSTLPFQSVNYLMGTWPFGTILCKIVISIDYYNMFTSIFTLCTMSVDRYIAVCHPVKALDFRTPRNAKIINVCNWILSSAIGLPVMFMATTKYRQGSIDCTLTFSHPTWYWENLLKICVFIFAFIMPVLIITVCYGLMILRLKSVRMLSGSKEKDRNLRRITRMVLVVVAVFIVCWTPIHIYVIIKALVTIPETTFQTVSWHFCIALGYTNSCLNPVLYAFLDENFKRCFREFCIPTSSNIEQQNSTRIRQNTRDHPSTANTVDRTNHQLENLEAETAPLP

[15] = Counterscreen for activators of the function of SWI/SNF related, matrix associated, actin dependent regulator of chromatin, subfamily a, member 2 (SMARCA2, BRM): Luminescence-based cell-based high throughput dose response assay to identify non-selective compounds using the VP16 reporter assay.; assay type: functional
[16] = molecular target: SWI/SNF-related matrix-associated actin-dependent regulator of chromatin subfamily A member 2 (Homo sapiens, UniProt P51531); assay: Luminescence-based cell-based high throughput dose response assay to identify activators of the function of SWI/SNF related, matrix associated, actin dependent regulator of chromatin, subfamily a, member 2 (SMARCA2, BRM).; assay type: functional

Beta-galactosidase, sequence (Q8VNN2 whole entry): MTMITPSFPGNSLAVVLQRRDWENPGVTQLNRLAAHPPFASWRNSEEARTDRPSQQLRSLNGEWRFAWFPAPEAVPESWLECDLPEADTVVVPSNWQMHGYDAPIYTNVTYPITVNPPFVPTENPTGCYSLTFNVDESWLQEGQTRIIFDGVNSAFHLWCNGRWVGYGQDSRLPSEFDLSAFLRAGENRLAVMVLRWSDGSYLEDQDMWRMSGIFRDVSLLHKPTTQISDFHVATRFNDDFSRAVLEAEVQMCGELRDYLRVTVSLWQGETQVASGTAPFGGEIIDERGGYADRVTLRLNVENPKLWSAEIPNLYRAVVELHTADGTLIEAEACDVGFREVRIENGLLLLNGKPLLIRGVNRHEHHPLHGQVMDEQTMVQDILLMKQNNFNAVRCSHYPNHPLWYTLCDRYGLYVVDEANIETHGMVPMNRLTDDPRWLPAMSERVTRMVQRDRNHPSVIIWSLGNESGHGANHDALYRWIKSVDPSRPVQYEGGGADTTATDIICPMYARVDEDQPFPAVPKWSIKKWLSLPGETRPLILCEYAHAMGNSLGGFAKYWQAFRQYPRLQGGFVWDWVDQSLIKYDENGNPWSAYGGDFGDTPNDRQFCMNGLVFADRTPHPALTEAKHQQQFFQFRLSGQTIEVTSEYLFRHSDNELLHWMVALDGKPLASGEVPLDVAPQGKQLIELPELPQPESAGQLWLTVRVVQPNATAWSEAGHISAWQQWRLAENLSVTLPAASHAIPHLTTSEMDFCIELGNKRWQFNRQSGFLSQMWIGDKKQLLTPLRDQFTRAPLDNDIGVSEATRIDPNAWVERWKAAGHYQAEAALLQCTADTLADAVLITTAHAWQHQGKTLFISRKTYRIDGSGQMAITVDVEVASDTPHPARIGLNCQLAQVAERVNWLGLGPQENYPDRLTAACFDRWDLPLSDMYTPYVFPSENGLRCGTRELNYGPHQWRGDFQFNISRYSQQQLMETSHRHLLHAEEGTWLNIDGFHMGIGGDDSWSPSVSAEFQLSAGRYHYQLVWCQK
Kappa-type opioid receptor, sequence (P41145 whole entry): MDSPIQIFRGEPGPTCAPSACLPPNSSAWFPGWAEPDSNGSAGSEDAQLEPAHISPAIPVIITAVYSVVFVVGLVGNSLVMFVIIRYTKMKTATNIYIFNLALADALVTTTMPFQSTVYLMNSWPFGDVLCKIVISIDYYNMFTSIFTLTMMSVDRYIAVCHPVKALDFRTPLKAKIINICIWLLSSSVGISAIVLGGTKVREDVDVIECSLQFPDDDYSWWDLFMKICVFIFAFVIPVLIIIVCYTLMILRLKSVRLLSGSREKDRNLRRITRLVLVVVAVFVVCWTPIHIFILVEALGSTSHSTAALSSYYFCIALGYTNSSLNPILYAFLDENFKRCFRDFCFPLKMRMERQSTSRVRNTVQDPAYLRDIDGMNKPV

With `CC1(C)CC(=O)C(=CNc2ncccc2/N=C/C2=C(O)CC(C)(C)CC2=O)C(=O)C1` the IC50 (Beta-galactosidase) was 1.23 µM (active) and the IC50 [1] was < 0.98 µM (inactive).

For `Cn1nnnc1NCc1ccc(C(F)(F)F)cc1`, the AC50 [2] was > 70 µM (inactive).

In the case of `N#C[C@H]1[C@@H](c2ccc(C#CCC3CCCC3)cc2)[C@@H](CO)N1C(=O)c1ccccn1`, the AC50 (HeLa) is reported as 27.8 µM (active), the AC50 [3] is reported as 1.73 µM (active) and the AC50 [4] is reported as 0.851 µM (active). The AC50 [5] was 1.44 µM (active), the AC50 [6] was 46.9 µM (active) and the AC50 (HEK293) was 15.7 µM (active). For the same compound, the AC50 [7] was 15.7 µM (active).

In the case of `COc1ccc(C(=O)N/N=C/c2ccc(OC)c(COc3ccccc3)c2)cc1`, the IC50 [8] is reported as > 69.5 µM (inactive) and the IC50 [9] is reported as > 69.5 µM (inactive).

In the case of `CC(C)C(CCN1C(=O)c2ccccc2C1=O)c1ccco1` (stereo not given), the IC50 (Beta-lactamase [10]) is reported as > 59.6 µM (inactive) and the IC50 (Beta-lactamase [11]) is reported as 36.8 µM (inactive).

In the case of `O=C1C=C(Nc2ccc(Cl)cc2)C(=O)N1c1ccc(Cl)cc1`, the IC50 [12] is reported as 12.5 µM (active) and the IC50 [13] is reported as 21 µM (inactive).

For `COc1ccc(CN2CCN(c3ncccn3)CC2)c(C)c1C`, the EC50 [14] was 0.263 µM (active) and the EC50 (Mu-type opioid receptor) was 92.5 µM (inactive).

With `CC(=O)c1ccc(OCCCC(=O)OCc2nnc(-c3ccc(Cl)cc3)o2)cc1` the EC50 [15] was > 91.1 µM (inactive) and the EC50 [16] was > 91.1 µM (inactive).
